The values below come from publication PMC9598561, “Antileishmanial Activity of 4,8-Dimethoxynaphthalenyl Chalcones on Leishmania amazonensis” (Antibiotics, 2022).

Data set [1] relates to L. amazonensis promastigotes. Briefly: SEM and TEM morphological and ultrastructural analysis. Format: cell-based, Leishmania amazonensis. Conditions: 3.3 μM and 6.6 μM, 24 h. The protocol:
SEM was performed to analyze morphological changes in the cell surface topography. […] After the treatment, the parasites were fixed in 2.5% glutaraldehyde (Merck, Darmstadt, Germany) in 0.1 M sodium cacodylate buffer (Sigma-Aldrich, St. Louis, MO, USA) and adhered to coverslips covered with poly-L-lysine (Sigma-Aldrich, St. Louis, MO, USA) for 60 min. Parasites were dehydrated with increasing ethanol (Synth, Diadema, Brazil) concentrations (30–100%), submitted to critical point drying (Baltec SCD-030), metalized with gold, and visualized on a high-resolution double beam electron microscope FEI SCIOS.
To evaluate the ultrastructural changes by TEM, promastigotes were treated and fixed as described above. After the samples were post-fixed with 1% OsO4 (Sigma-Aldrich, St. Louis, MO, USA), 0.8% potassium ferrocyanide (Sigma-Aldrich, St. Louis, MO, USA), and 10.0 mM CaCl2 (Synth, Diadema, Brazil) in 0.1 M sodium cacodylate buffer for 1 h at room temperature and protected from light. Samples were washed in 0.1 M sodium cacodylate buffer, dehydrated in increased concentration of acetone (Synth, Diadema, Brazil) (50–100%), including in EPON resin, and polymerized at 60 °C for 72 h. […]

Data set [2] in a line: Cytotoxicity on murine macrophages, MTT assay. Format: cell-based. Particulars: mouse, J774A.1 macrophage cell line, J774A.1 macrophages, CC50 ± SEM. How it is done:
The cytotoxic effect of compounds 4a–i on murine macrophage cell lines J774A.1 (TIB-67, ATCC, Manassas, VA, USA) was assessed using the MTT assay (3-(4,5-dimethylthiazol-2-yl)-2,5-diphenyltetrazolium bromide) (Sigma-Aldrich, St. Louis, MO, USA), [14]. Macrophages were seeded in 96-well plates at a density of 10^4 cells/well and were cultured with 4a–i at different concentrations (10, 25, 50, and 130 µM) for 24 h (37 °C, 5% CO2). The cells were washed, MTT (5 mg/mL) added, and the cells were incubated for 4 h. The MTT product was diluted with 100 μL of DMSO (Sigma-Aldrich, St. Louis, MO, USA) and analyzed at 550 nm in a spectrophotometer (Thermo Fisher Scientific, Multiskan GO, Waltham, MA, USA) at 550 nm. 0.5% H2O2 (Merck, Darmstadt, Germany) was used as a positive control. The results were expressed as the percentage of viable cells compared to the control group. The cytotoxic concentration for 50% of the cells (CC50) was calculated by nonlinear regression to the dose-response curve using GraphPad Prism statistical software (GraphPad Software, Inc., San Diego, CA, USA, 500.288).
(§1) The half-maximal inhibitory concentration for 50% of parasites (IC50) was determined on L. amazonensis promastigotes treated with the nine compounds, and the cytotoxic concentration that causes the death of 50% of cells (CC50) on murine macrophages (J774A.1). IC50 and CC50 were calculated by nonlinear regression using GraphPad Prism statistical software (GraphPad Software, Inc., USA, 500.288). The tested compounds’ selectivity index was expressed as SI = CC50 on […] macrophages/IC50 on promastigotes forms.

Data set [3] concerns L. amazonensis intracellular amastigotes. Briefly: Antiamastigote assay in infected J774A.1 macrophages. It is filed as cell-based, Leishmania amazonensis. Particulars: 24 h; for reduction of infected macrophages: mean ± SEM. The protocol: Murine macrophages J774A.1 (5 × 10^5 cell/mL) were cultivated in 24-well plates. After infection, the non-internalized promastigotes were removed by washing with PBS, and the adherent macrophages infected were treated with the most promising chalcone (4f) in non-cytotoxic concentrations (10, 25, 50, and 130 μM) for 24 h (37 °C, 5% CO2). RPMI 1640 medium, DMSO (0.01%), and AmB (1 μM) were used as a negative control, vehicle, and positive control, respectively. Then, cells were stained with Leishman (Laborclin, Pinhais, Brazil), and 20 fields were analyzed by increased immersion (1000× magnification) using an optical microscope (Olympus BX41, Olympus Optical Co., Ltd., Tokyo, Japan) to determine the % of infected macrophages and the number of amastigotes/cells.

The subject of data set [4] is L. amazonensis promastigotes. Briefly: Antipromastigote activity, MTT assay. Format: cell-based, Leishmania amazonensis. Conditions: for SI = selectivity index (CC50/IC50): CC50 macrophages / IC50 promastigotes; for IC50: Leishmania amazonensis, L. amazonensis promastigotes, 24 h, MTT, IC50 ± SEM. How it is done:
The promastigote forms of L. amazonensis (MHOM/BR/1989/166MJO) were maintained in culture medium 199 (GIBCO, Invitrogen, New York, NY, USA) pH 7.18–7.22 supplemented with 10% fetal bovine serum (FBS) (GIBCO, Invitrogen, New York, NY, USA), 1M HEPES buffer, 1% human urine, 1% L-glutamine, 10 µg/mL streptomycin and 10 U/mL penicillin (GIBCO, Invitrogen, NY, USA) and 10% sodium bicarbonate. The parasite culture was maintained in a B.O.D. incubator at 24 °C in 25 cm^2 culture flasks. In all experiments, promastigote forms in the stationary growth phase were used (5-day culture).
The activities were evaluated by the 3-(4,5-dimethylthiazol-2-yl)-2,5-diphenyltetrazolium bromide (MTT) assay. L. amazonensis promastigote forms (10^6 cells/mL) were placed in 96-well plates and treated with the chalcone derivatives (4a–i) at different concentrations (10, 25, 50, and 130 µM) and maintained in a B.O.D incubator for 24 h at 24 °C. A solution of MTT (10 μL of a 5 mg/mL stock) (Sigma-Aldrich, St. Louis, MO, USA) was added to each well, and after 4 h, the plates were evaluated at λ = 550 nm using a spectrophotometer (Thermo Fisher Scientific, Multiskan GO, Waltham, MA, USA). L. amazonensis promastigotes maintained in culture M199 medium without treatment or with 0.01% DMSO (Sigma-Aldrich, St. Louis, MO, USA) served as negative and vehicle controls. 1 μM amphotericin B (AmB) (Sigma-Aldrich, St. Louis, MO, USA) was used as a positive control. The results of antipromastigote activities were expressed as half-maximal inhibitory concentrations for 50% of parasites (IC50) in μM. The IC50 values were calculated as the average of three independent experiments performed in duplicates.
as §1

Data set [5] concerns L. amazonensis promastigotes. Briefly: ROS generation in promastigotes (H2DCFDA probe). Particulars: 3.3 μM and 6.6 μM, 24 h. It is filed as cell-based, Leishmania amazonensis. How it is done: As a positive control, hydrogen peroxide (0.4% H2O2) was used, and the vehicle (DMSO 0.01%) was used for a negative control. ROS was measured as an increase in fluorescence caused by converting the non-fluorescent dye to the fluorescent 2.7-dichlorofluorescein, with an excitation wavelength of 488 nm and emission of 530 nm in a fluorescence microplate reader (Victor X3, PerkinElmer, Turku, Finland).

Data set [6] concerns L. amazonensis promastigotes. Briefly: Mitochondrial membrane potential (TMRE). Conditions: 3.3 μM and 6.6 μM, 24 h. Format: cell-based, Leishmania amazonensis. The protocol:
To evaluate if the most promising chalcone (4f) alters the mitochondrial membrane potential, we conducted an assay using a tetramethylrhodamine ethyl ester (TMRE) staining (Sigma-Aldrich, St. Louis, MO, USA). […] Carbonyl cyanide m-chlorophenylhydrazone (100 μM) (CCCP) (Sigma-Aldrich, St. Louis, MO, USA) was used as a positive control, and the vehicle (DMSO 0.01%) was used as a negative control.

By CC50 is commonly meant the concentration that lowers cell viability or growth by half. Low values mean greater toxicity to the cells, high ones lower toxicity to the cells. Usually IC50 stands for the point on the concentration scale where inhibition reaches its midpoint. Read a low IC50 as greater potency.

For `COc1ccc(C(=O)/C=C/c2ccc([N+](=O)[O-])cc2)c2c(OC)cccc12` [Compound 4f, (E)-1-(4,8-dimethoxynaphthalen-1-yl)-3-(4-nitrophenyl)prop-2-en-1-one], in data set [1], the “ultrastructural changes (TEM)” value was “an increase in autophagic vacuoles, lipid-storage bodies accumulation, mitochondrial swelling, and nuclear alterations”. Further, in data set [2], the cytotoxic concentration (CC50) at 24 h was 372.9 ± 0.04 µM. The “reduction of number of amastigotes per macrophage” value in data set [3] (10 μM, compared to controls) was 14.14 ± 0.04%; in data set [3] (25 μM, compared to controls), 36.20 ± 0.02%; in data set [3] (50 μM, compared to controls), 39.33 ± 0.03%. For the same molecule, the “reduction of infected macrophages” value is 23.81 ± 1.07% in data set [3] (10 μM), 35.78 ± 1.59% in data set [3] (25 μM), 42.15 ± 0.49% in data set [3] (50 μM) and 63.04 ± 0.35% in data set [3] (130 μM). In addition, the IC50 in data set [3] (Leishmania amazonensis, J774.A1, L. amazonensis-infected J774A.1 macrophages) amounted to 18.5 ± 1.19 µM; in data set [4], 3.3 ± 0.34 µM. Moreover, the “SI = selectivity index (CC50/IC50)” value in data set [4] is recorded as 112.6. For the same molecule, the “intracellular ROS levels (DCF fluorescence)” value in data set [5] is given as “substantial rise in the intracellular ROS levels”. For the same molecule, in data set [6], the “mitochondrial membrane potential (ΔΨm), TMRE” value is given as “reduces the potential of the mitochondrial membrane (ΔΨm)”.
`COc1ccc(C(=O)/C=C/c2cccc([N+](=O)[O-])c2)c2c(OC)cccc12` [Compound 4g, (E)-1-(4,8-dimethoxynaphthalen-1-yl)-3-(3-nitrophenyl)prop-2-en-1-one] returned a CC50 at 24 h in data set [2] of 366 ± 0.13 µM. Also, in data set [4], the “SI = selectivity index (CC50/IC50)” value turned out to be 23.2 and the half-maximal inhibitory concentration (IC50) is 14.5 ± 0.09 µM.
In data set [2], `COc1ccc(C(=O)/C=C/c2ccc(Cl)cc2Cl)c2c(OC)cccc12` [Compound 4e, (E)-3-(2,4-dichlorophenyl)-1-(4,8-dimethoxynaphthalen-1-yl)prop-2-en-1-one] displayed a CC50 at 24 h of 561.1 ± 0.03 µM. The molecule also gave an IC50 in data set [4] of 37.7 ± 0.06 µM.
`COc1ccc(/C=C/C(=O)c2ccc(OC)c3cccc(OC)c23)cc1` [Compound 4a, (E)-1-(4,8-dimethoxynaphthalen-1-yl)-3-(4-methoxyphenyl)prop-2-en-1-one] came in with a CC50 at 24 h in data set [2] of 414.8 ± 0.04 µM. Further, in data set [4], the “SI = selectivity index (CC50/IC50)” value was found to be 1.7 and 264.1 ± 0.12 µM corresponded to half-maximal inhibition (IC50).
Regarding `COc1ccc(C(=O)/C=C/c2ccc(Cl)c(Cl)c2)c2c(OC)cccc12` [Compound 4c, (E)-3-(3,4-dichlorophenyl)-1-(4,8-dimethoxynaphthalen-1-yl)prop-2-en-1-one], it took 194.3 ± 0.06 µM to reach half-maximal cytotoxicity in data set [2] (CC50 at 24 h). For the same molecule, in data set [4], the “SI = selectivity index (CC50/IC50)” value came out at 14.5 and the IC50 is 13.4 ± 0.08 µM.
With `C[C@@H]1[C@H](O)[C@@H](C)/C=C/C=C/C=C/C=C/C=C/C=C/C=C/[C@H](O[C@@H]2O[C@H](C)[C@@H](O)[C@H](N)[C@@H]2O)C[C@@H]2O[C@](O)(C[C@@H](O)C[C@@H](O)[C@H](O)CC[C@@H](O)C[C@@H](O)CC(=O)O[C@H]1C)C[C@H](O)[C@H]2C(=O)O` [AmB, Amphotericin B, reference compound], half-maximal cytotoxicity in data set [2] (CC50 at 24 h) was put at 49.7 µM. In data set [3] (1 μM, positive control), the “reduction in the percentage of infected macrophages” value was determined as 95.25 ± 0.65% and the “reduction of number of amastigotes per macrophage” value is 89.55 ± 0.05%. In data set [4], the “SI = selectivity index (CC50/IC50)” value is 73.17 and 0.68 ± 0.21 µM corresponded to half-maximal inhibition (IC50).
`COc1cccc(/C=C/C(=O)c2ccc(OC)c3cccc(OC)c23)c1` [Compound 4b, (E)-1-(4,8-dimethoxynaphthalen-1-yl)-3-(3-methoxyphenyl)prop-2-en-1-one] displayed a 50% cytotoxic concentration (CC50) at 24 h in data set [2] of 246.7 ± 0.03 µM. Moreover, in data set [4], the “SI = selectivity index (CC50/IC50)” value was 3.7 and the IC50 came to 67.1 ± 0.16 µM.
In data set [2], `COc1ccc(C(=O)/C=C/c2ccc(Br)cc2)c2c(OC)cccc12` [Compound 4i, (E)-3-(4-bromophenyl)-1-(4,8-dimethoxynaphthalen-1-yl)prop-2-en-1-one] showed a CC50 at 24 h of 434 ± 0.05 µM. Besides, in data set [4], the “SI = selectivity index (CC50/IC50)” value was found to be 17.8 and it took 24.3 ± 0.05 µM to reach half-maximal inhibition (IC50).
For `COc1ccc(C(=O)/C=C/c2c(Cl)cccc2Cl)c2c(OC)cccc12` [Compound 4d, (E)-3-(2,6-dichlorophenyl)-1-(4,8-dimethoxynaphthalen-1-yl)prop-2-en-1-one], the CC50 at 24 h in data set [2] was found to be 126.8 ± 0.09 µM. The midpoint of inhibition in data set [4], the IC50, lay at 94.1 ± 0.06 µM.
In data set [2], `COc1ccc(C(=O)/C=C/c2ccccc2)c2c(OC)cccc12` [Compound 4h, (E)-1-(4,8-dimethoxynaphthalen-1-yl)-3-phenylprop-2-en-1-one] had a cytotoxic concentration (CC50) at 24 h of 872.3 ± 0.134 µM. Further, in data set [4], the “SI = selectivity index (CC50/IC50)” value is 33.44 and the IC50 was 26.1 ± 0.09 µM.
